Results taken from patent publication US10603298B2, “Succinate dehydrogenase inhibitors (SDHi's)” (Medical Research Council, priority 2014, dated 2020).
Entries after “also recorded” stand apart in the source; their conditions may differ.

How the values were obtained:
C2C12 myoblasts = assay: Succinate-dependent mitochondrial superoxide production (MitoSOX) in myoblasts; type: cell-based, mouse; details: C2C12 cells, normoxic, mitochondria hyperpolarised with oligomycin
Experimental: C2C12 myoblasts were seeded in 35 mm glass bottom culture dishes (MatTek) and incubated for 24 h in low glucose (1 g/L) DMEM. 2 h prior to imaging DMEM was removed, and replaced with imaging buffer (132 mM NaCl; […]; 4.2 mM KCl; 1 mM MgCl2 1 mM CaCl2 adjusted to pH 7.4 with Tris base and supplemented with 2-deoxyglucose (25 μM), and sodium pyruvate (10 mg/L or 4 μM oligomycin as indicated). Myoblasts were pre-incubated with 2 μM MitoSOX for 15 min prior to imaging. MitoSOX fluorescence was monitored using a Nikon Eclipse Ti confocal microscope at 37° C. on a temperature controlled stage for 30 min. MitoSOX was excited at 510 nm and the emitted signal collected with a LP 560 filter following the indicated additions.

[1] = system: adult primary rat cardiomyocytes; assay: NAD(P)H autofluorescence in primary cardiomyocytes during in situ IR; type: cell-based; details: 4 mM in ischaemic buffer
Experimental: (§1) FIG. 14: Tracking NADH reduction state in primary cardiomyocytes during in situ IR. Primary rat cardiomyocytes were subjected to 40 min ischaemia and reoxygenation and NADH reduction state was tracked throughout the experiment by measurement of NAD(P)H autofluorescence. […] Representative traces of each condition are shown. The highlighted window indicates the period of the experiment expanded in detail in FIG. 3c.
(§2) Male Sprague-Dawley rats (300-370 g) were terminally anaesthetised via IP injections of 200 mg/kg sodium pentobarbitone and 330 U/kg heparin. Hearts were excised and retrograde perfused on a Langendorff-perfusion system with 13 mL/min oxygenated KH buffer at 37° C. Cells were isolated by collagenase digestion using standard methods^41. […]
(§3) Cells were imaged within 36 hours of plating. […] Simulated ischaemia was achieved by replacing the buffer with a pre-gassed, hypoxic recording buffer simulating ischaemia (as above but lacking glucose and containing 10 mM sodium lactate, 14.8 mM KCl; pH 6.4) and by covering the heated stage with a transparent, gas-impermeant lid, forming a small chamber into which argon was forced to maintain hypoxia. pO2 was routinely measured as <2.0 mm Hg during simulated ischaemia. […]
(§4) ROS production was estimated by oxidation of DHE. […] All measured cell parameters were analysed with Fiji image processing software.

[2] = system: mouse heart IR injury (myocardial infarction); assay: In vivo mouse cardiac IR injury (LAD ligation), infarct size by triphenyltetrazolium chloride staining; details: dimethyl succinate 8 mg/kg/min infused in combination with dimethyl malonate
Experimental: For the in vivo heart IR model an open-chest, in situ heart model was used^31,32. Male mice (8-10 weeks; Charles River Laboratories, UK) were anaesthetised with sodium pentobarbital (70 mg/kg intraperitoneally (i.p.)), intubated endotracheally and ventilated with 3 cm H2O positive-end expiratory pressure. Adequacy of anaesthesia was monitored using corneal and withdrawal reflexes. Ventilation frequency was kept at 110 breaths per minute with tidal volume between 125-150 μL. A thoracotomy was performed and the heart exposed by stripping the pericardium. A prominent branch of the left anterior descending coronary artery (LAD) was surrounded by a 7-0 Prolene suture that was then passed through a small plastic tube. Ischaemia was induced by tightening the tubing against the heart surface. To assess metabolites during IR in vivo, mice were divided into three groups: 30 min ischaemia, 30 min ischaemia plus 5 min reperfusion and 30 min sham-operation in which the suture was placed but the LAD was not occluded. At the end of each protocol tissue was removed from the at risk and peripheral areas of the heart, selected visually by comparing white versus red tissue, and snap-frozen in liquid nitrogen. […] Infarct size was assessed after 30 min of ischaemia followed by 120 min reperfusion using 2% triphenyltetrazolium chloride staining and is expressed as a percentage of the risk zone^33. […]

[3] = system: adult primary rat cardiomyocytes; assay: ROS production (DHE oxidation) in adult primary cardiomyocytes during in situ IR; type: cell-based; details: 40 min ischaemia then reoxygenation, 4 mM in ischaemic buffer
Experimental: as §1, with “13:” for “14:”, “cardiomyocytes ROS levels” for “NADH reduction state”, “with ROS levels” for “and NADH reduction state was”, “by ratiometric” for “by”, “dihydroethidium (DHE) oxidation.” for “NAD(P)H autofluorescence.”, “3.a.” for “3c.”
as §2, §3, §4

COC(=O)CCC(=O)OC [dimethyl succinate]
MitoSOX oxidation (C2C12 myoblasts): increased MitoSOX oxidation | NAD(P)H oxidation at reperfusion [1]: suppressed | cardioprotection by dimethyl malonate after adding back dimethyl succinate [2]: cardioprotection was suppressed | ROS production / DHE oxidation upon reperfusion [3]: significantly increased mitochondrial ROS production during reperfusion; also recorded: amplified reperfusion DHE oxidation
